From patent publication US20260015339A1, “CALIX[4]ARENES WITH HIGH ANTICANCER ACTIVITY” (UNIVERSITE GRENOBLE ALPES, priority 2023, published 2026) come the findings set out here.

As a reminder, the IC50 is the concentration needed to halve the response being measured. Read a high IC50 as weaker potency.

Series [1] in a line: Cu^+ binding by 1H NMR titration. The settings on record: 1H NMR titration with Cu(MeCN)4BF4, CD3CN/CDCl3 4/1, 298 K. On the procedure:
Binding abilities and complexation constants of the examples of calix[4]arenes of the present invention and the comparative examples with Cu^+ were evaluated by ^1H NMR titrations at 298 K using copper(I)tetrakis(acetronitrile)tetrafluoroborate.
For example, for each separate calix[4]arene a stock solution of the tested calix[4]arene was prepared in a CD3CN/CDCl3, 4/1 mixture. Using this stock solution, a Cu(MeCN)4BF4 solution was prepared and added by steps of 0.25 equivalent of copper(I) up until 1 equivalent and then by steps of 0.5 equivalent until a total of at least 2 equivalents. ^1H NMR spectra were recorded at a 400 MHz spectrometer at 298 K for the stock solutions of the calix[4]arenes and after each addition of Cu(MeCN)4BF4.
Calix[4]arenes for which a gradual change of the chemical shifts of the ^1H NMR signals (>0.1 ppm for at least one of the signals) was observed upon addition of up to 4-5 equivalents of Cu(MeCN)4BF4 were considered to show weak binding.

Series [2] can be described thus: Cu^+ transport into liposomes with encapsulated BCS. The settings on record: POPC/cholesterol 7:3 LUVs, calix[4]arene to lipid 1:1000, 50 μM copper gradient, F/F0 after 600 s. On the procedure:
The ability of the examples of calix[4]arenes of the invention and the comparative examples to be delivered into a lipidic bilayer membrane of a liposome from a solution and their capacity to then act as a transporter of Cu^+ was evaluated using bathocuproine disulphonate (hereafter abbreviated “BCS”) encapsulated in large unilamellar vesicles (LUVs, also referred to as liposomes) composed of 1-palmitoyl-2-oleoyl-sn-glycero-3-phosphocholine and cholesterol in a 7:3 ratio.
BCS is a fluorescent water soluble phenantroline derivative that can be used as fluorescent dye for the sensing of Cu^+ through the formation of a non-fluorescent 2:1 complex.
Stock solution of lipids were prepared using deacidified CHCl3 and stored in a freezer. CHCl3 was deacidified by passing through activated basic alumina. The lipids used to prepare the liposomes were 2-oleoyl-1-palmitoyl-sn-glycero-3-phosphocholine (POPC), (purity ≥99%) and cholesterol (purity of 95%). 50 mM sodium phosphate buffer were prepared with Millipore water at pH 7 (±0.1) by mixing the solution of the mono- and the di-protonated phosphate salts. The solution of the dye (BCS) was prepared at 0.5 mM concentration in phosphate buffer.
The lipids solutions were mixed in different ratios in a 5 mL round bottom flask. The POPC/cholesterol molar ratio was 7:3 in all experiments. The total amount of lipids per batch varied depending on the amount of liposomes solution required for the experiment. After mixing the lipid solutions in a round bottom flask, the chloroform was evaporated under a gentle air flow and the resulting lipid film was dried at high vacuum for at least an hour. 500 μL of the BCS solution in phosphate buffer and a magnetic stir bar were added to the flask. The flask was then sonicated for 30 seconds and placed under magnetic agitation for at least an hour. The solution was frozen with liquid nitrogen and heated back to room temperature with warm water ten times to form large unilamellar vesicles (LUVs). The liposome solution was extruded 29 times, using an extrusion kit equipped with a membrane with 200 nm pores. Subsequently, the solution was eluted with the buffer solution used for the experiment through a size exclusion column (Sephadex G-25) to remove the external BCS and then diluted with phosphate buffer to obtain a concentration of 0.4 mM in lipids.
Solutions of the calix[4]arenes were prepared at a concentration of 0.24 mM in DMSO and 5 μL of the solution was added 2 minutes before each transport measurement.
Alternatively, calix[4]arenes were pre-incorporated by combining the calix[4]arene (dissolved in chloroform) with the lipids prior to the evaporation of the chloroform to obtain a lipid film. The concentrations and volumes were chosen to obtain a calix[4]arene to lipid of 1:1000.
Fluorescence measurements were performed with a Horiba FluoroMax 4 spectrometer using a 4-faced quartz cuvette (10 mm×10 mm). For the Cu^+ transport assay, the excitation was set at 278 nm and emission was recorded at 393 nm. These values correspond to the excitation and emission maxima of BCS encapsulated inside LUVs.
The Cu^+ solutions added to the liposomes were obtained by dissolving Cu(MeCN)4BF4 in MeCN at 15.25 mM concentration. The copper solution was then diluted by a factor 5 in a phosphate buffer during the first 30 seconds of the experiment to reach a copper concentration of 3.05 mM. 50 μL of the diluted copper solution was added to 3 mL of liposomes, resulting in a copper gradient of 50 μM. The fluorescence level was monitored for 600 seconds after the addition of the copper solution.
For each run the initial plateau and the initial vertical drop (due to the binding of the exterior dye with Cu^+ and the dilution, 1-4 seconds after the addition) were removed. Then the signal was normalised by dividing the fluorescence values (F) by the value at t=0 second (F0). […]

Series [3] relates to H322 lung carcinoma cells. Description: MTS cytotoxicity assay on H322. The class given is cell-based. The following applies: NCI-H322; H322, 72 hours of treatment. Background: Tetrazolium dyes change colour on reduction, which living cells bring about.
Description: H322 lung carcinoma cells were seeded in 96-well plates together with the calix[4]arene of the formula (2). Cells were grown in RPMI-1640 supplemented with GlutaMAX™ (Gibco™) and fetal calf serum (FCS, 10%) and treated with a broad range of concentrations of the calix[4]arene of the formula (2). After 72 hours of treatment, the cytotoxicity was measured by means of the IC50 value, using the kit “CellTiter 96R AQuous One Solution Cell Proliferation Assay (MTS)” from Promega™. Following 30 minutes of incubation with the MTS reagent, the endpoint measurements were done in triplicate at 485 nm, using a fluorescence plate reader.
H322 lung carcinoma cells were seeded in 96-well plates together with the compound of the 2nd comparative example of the formula (XI). Cells were grown in RPMI-1640 supplemented with GlutaMAX™ (Gibco™) and fetal calf serum (FCS, 10%) and treated with a broad range of concentrations of the 2nd comparative example of the formula (XI). After 72 hours of treatment, the cytotoxicity was measured by means of the IC50 value, using the kit “CellTiter 96R AQuous One Solution Cell Proliferation Assay (MTS)” from Promega™. Following 30 minutes of incubation with the MTS reagent, the endpoint measurements were done in triplicate at 485 nm, using a fluorescence plate reader.
H322 lung carcinoma cells were seeded in 96-well plates together with the 1st comparative example of the formula (X). Cells were grown in RPMI-1640 supplemented with GlutaMAX™ (Gibco™) and fetal calf serum (FCS, 10%) and treated with a broad range of concentrations of the compound of the formula (X). After 72 hours of treatment, the cytotoxicity was measured by means of the IC50 value, using the kit “CellTiter 96R AQuous One Solution Cell Proliferation Assay (MTS)” from Promega™. Following 30 minutes of incubation with the MTS reagent, the endpoint measurements were done in triplicate at 485 nm, using a fluorescence plate reader.
H322 lung carcinoma cells were seeded in 96-well plates together with the tested calix[4]arenes. Cells were grown in RPMI-1640 supplemented with GlutaMAX™ (Gibco™) and fetal calf serum (FCS, 10%) and treated with a broad range of concentrations of the tested calix[4]arenes. After 72 hours of treatment, the cytotoxicity was measured by means of the IC50 value, using the kit “CellTiter 96R AQuous One Solution Cell Proliferation Assay (MTS)” from Promega™. Following 30 minutes of incubation with the MTS reagent, the endpoint measurements were done in triplicate at 485 nm, using a fluorescence plate reader.
Series [4] deals with Hepatocellular carcinoma (HepG2/C3A) cells. Kind of series: MTT cytotoxicity assay (DL50). It is filed as cell-based. The following applies: 24 hours of incubation. On the procedure:
Cytotoxicity was evaluated using the MTT assay. 1.10^4 cells per well were seeded in a flat-bottom 96-well plate and were incubated for 48 hours at 37° C. with 5% CO2 before addition of the different calix[4]arenes at concentrations up to 200 μM. In all experiments, each condition was performed in triplicate in the plate. Besides, each experiment was done three times independently. After 24 hours of incubation in presence of the compounds, medium was discarded, cells were rinsed with PBS and 100 μL of medium containing 0.5 mg/mL of MTT was added to each well. After 30 minutes of incubation at 37° C., MTT solution was discarded and formazan crystals formed were dissolved in 150 μL of 4 mM HCl, 0.1% NP40 in isopropanol. The absorbance in the wells were read in a microplate reader (Tecan microplate reader-550) at 570 nm.

Series [5] concerns PC9 human lung cancer cells. Description: MTS cytotoxicity assay, combination with CuCl2, PC9. The following applies: 72 hours.
Description: PC9 human lung cancer cells were seeded in 96-well plates together with the calix[4]arene of the formula (2) and CuCl2. Cells were grown in RPMI-1640 supplemented with GlutaMAX™ (Gibco™) and fetal calf serum (FCS, 10%) treated with a broad range of concentrations of the calix[4]arene of the formula (2) or/and CuCl2 from Merck. After 72 hours of treatment, the cytotoxicity was measured by means of the IC50 value, using the kit “CellTiter 96R AQuous One Solution Cell Proliferation Assay (MTS)” from Promega™. Following 30 minutes of incubation with the MTS reagent, the endpoint measurements were done in triplicate at 485 nm, using a fluorescence plate reader.
In series [6] the test system is H322 lung carcinoma cells. Description: MTS cytotoxicity assay, combination with CuCl2, H322. The following applies: 72 hours.
Description: H322 lung carcinoma cells were seeded in 96-well plates together with the calix[4]arene of the formula (2) and CuCl2. Cells were grown in RPMI-1640 supplemented with GlutaMAX™ (Gibco™) and fetal calf serum (FCS, 10%) treated with a broad range of concentrations of the calix[4]arene of the formula (2) or/and CuCl2 from Merck. After 72 hours of treatment, the cytotoxicity was measured by means of the IC50 value, using the kit “CellTiter 96R AQuous One Solution Cell Proliferation Assay (MTS)” from Promega™ Following 30 minutes of incubation with the MTS reagent, the endpoint measurements were done in triplicate at 485 nm, using a fluorescence plate reader.
For series [7], the system named is A549 human lung cancer cells. Description: MTS cytotoxicity assay, combination with CuCl2, A549. The settings on record: 72 hours.
Description: A549 human lung cancer cells were seeded in 96-well plates together with the calix[4]arene of the formula (2) and CuCl2. Cells were grown in RPMI-1640 supplemented with GlutaMAX™ (Gibco™) and fetal calf serum (FCS, 10%) treated with a broad range of concentrations of the calix[4]arene of the formula (2) or/and CuCl2 from Merck. After 72 hours of treatment, the cytotoxicity was measured by means of the IC50 value, using the kit “CellTiter 96R AQuous One Solution Cell Proliferation Assay (MTS)” from Promega™. Following 30 minutes of incubation with the MTS reagent, the endpoint measurements were done in triplicate at 485 nm, using a fluorescence plate reader.

With `C=CCOc1c2cccc1Cc1cccc(c1OCc1nccn1C)Cc1cccc(c1OCC=C)Cc1cccc(c1OCc1nccn1C)C2` [(3)], the “Cu^+ binding” value in series [1] is given as “Strong binding (means an affinity constant (Ka) equal or greater than 10^5 M^−1)”. In series [2], the “Cu^+ transport” value is on record as “Yes (means that a significant decrease of the fluorescence of encapsulated BCS was observed upon addition of Cu^+ to the liposomes (F/F0<0.65 after 600 s))”. For the same compound, the results for the IC50 in series [3] and in series [4] were 5 µM and 4.5 µM, respectively.

Consider `CCOC(=O)COc1c2cccc1Cc1cccc(c1OCc1nccn1C)Cc1cccc(c1OCC(=O)OCC)Cc1cccc(c1OCc1nccn1C)C2` [(4)], for which, in series [1], the “Cu^+ binding” value is listed as “Strong binding (means an affinity constant (Ka) equal or greater than 10^5 M^−1)”. Moreover, the “Cu^+ transport” value in series [2] is recorded as “Yes (means that a significant decrease of the fluorescence of encapsulated BCS was observed upon addition of Cu^+ to the liposomes (F/F0<0.65 after 600 s))”. The IC50 in series [3] was found to be 6 µM; in series [4], 3.1 µM.

`CCCOc1c2cccc1Cc1cccc(c1OCc1nc3ccccc3n1C)Cc1cccc(c1OCCC)Cc1cccc(c1OCc1nc3ccccc3n1C)C2` [(8)]: the “Cu^+ binding” value in series [1] is given as “Strong binding (means an affinity constant (Ka) equal or greater than 10^5 M^−1)”. Besides, the “Cu^+ transport” value in series [2] was “Yes (means that a significant decrease of the fluorescence of encapsulated BCS was observed upon addition of Cu^+ to the liposomes (F/F0<0.65 after 600 s))”. Also, 128 µM corresponded to half-maximal inhibition in series [4] (IC50).

`CCCOc1c2cccc1Cc1cccc(c1OCc1ncco1)Cc1cccc(c1OCCC)Cc1cccc(c1OCc1ncco1)C2` [(9)]: the “Cu^+ binding” value in series [1] was “Weak binding (means a change of the chemical shifts of the ^1H NMR signals (>0.1 ppm for at least one of the signals) is observed upon addition of up to 4-5 equivalents of Cu(MeCN)4BF4)”. In series [2], the “Cu^+ transport” value is reported as “Yes (means that a significant decrease of the fluorescence of encapsulated BCS was observed upon addition of Cu^+ to the liposomes (F/F0<0.65 after 600 s))”. Further, the midpoint of inhibition in series [4], the IC50, lay at 70 µM.

Consider `CCCOc1c2cccc1Cc1cccc(c1OCc1nccs1)Cc1cccc(c1OCCC)Cc1cccc(c1OCc1nccs1)C2` [(10)], for which the “Cu^+ binding” value in series [1] is listed as “Weak binding (means a change of the chemical shifts of the ^1H NMR signals (>0.1 ppm for at least one of the signals) is observed upon addition of up to 4-5 equivalents of Cu(MeCN)4BF4)”. For the same compound, in series [2], the “Cu^+ transport” value is listed as “Yes (means that a significant decrease of the fluorescence of encapsulated BCS was observed upon addition of Cu^+ to the liposomes (F/F0<0.65 after 600 s))”.

Regarding `CCCOc1c2cccc1Cc1cccc(c1OCc1ccccn1)Cc1cccc(c1OCCC)Cc1cccc(c1OCc1ccccn1)C2` [(38)], the “Cu^+ binding” value in series [1] is listed as “Strong binding (means an affinity constant (Ka) equal or greater than 10^5 M^−1)”. Also, the “Cu^+ transport” value in series [2] is recorded as “Yes (means that a significant decrease of the fluorescence of encapsulated BCS was observed upon addition of Cu^+ to the liposomes (F/F0<0.65 after 600 s))”.

In series [4], `Oc1c(I)cc(Cl)c2cccnc12` [Clioquinol, clioquinol, reference compound] had an IC50 of 67 µM.

Take `[Cl][Cu][Cl]` [Cu^2+, CuCl2]: the “percentage of cell viability” value in series [5] (PC9, Cu^2+ 1 μM alone ((2) 0 μM)) is recorded as 90.9%; in series [5] (PC9, Cu^2+ 5 μM alone ((2) 0 μM)), 87.1%; in series [5] (PC9, Cu^2+ 10 μM alone ((2) 0 μM)) it was 81.0%; in series [5] (PC9, Cu^2+ 25 μM alone ((2) 0 μM)), 77.1%; in series [5] (PC9, Cu^2+ 50 μM alone ((2) 0 μM)), 68.8%; in series [6] (H322, Cu^2+ 1 μM alone ((2) 0 μM)), 87.2%. Also, the “percentage of cell viability” value worked out at 83.3% in series [6] (H322, Cu^2+ 5 μM alone ((2) 0 μM)); 79.5% in series [6] (H322, Cu^2+ 10 μM alone ((2) 0 μM)); 72.9% in series [6] (H322, Cu^2+ 25 μM alone ((2) 0 μM)); 60.6% in series [6] (H322, Cu^2+ 50 μM alone ((2) 0 μM)); 89.4% in series [7] (A549, Cu^2+ 1 μM alone ((2) 0 μM)); 88.1% in series [7] (A549, Cu^2+ 5 μM alone ((2) 0 μM)). Further, the “percentage of cell viability” value in series [7] (A549, Cu^2+ 10 μM alone ((2) 0 μM)) came to 84.6%; in series [7] (A549, Cu^2+ 25 μM alone ((2) 0 μM)), 85.6%; in series [7] (A549, Cu^2+ 50 μM alone ((2) 0 μM)) it was 79.4%.

As for `CCCOc1c2cccc1Cc1cccc(c1OCc1nccn1C)Cc1cccc(c1OCCC)Cc1cccc(c1OCc1nccn1C)C2` [formula (2)], the midpoint of inhibition in series [4], the IC50, lay at 3.1 µM.
